Like-named read-outs stand apart in the source and are kept apart here.
Columns and labels:
[1] = at room temperature; cited from earlier work
[2] = cited from earlier work
Human PAH-RVFbs = assay: PAH-RVFbs proliferation and activation; format: cell-based; conditions: 0.25 μM, 1 μM, and 4 μM
Method: PAH patient samples were assessed for expression of fibronectin binding integrins. […] Human PAH-RVFbs were treated with integrin α5β1 inhibitor SMi at 0.25 μM, 1 μM, and 4 μM. […] (FIGS. 22A and 22B).

PAB rats = assay: Pulmonary Arterial Banding (PAB) rat model; format: in vivo
Method: Animals were divided into three study groups as follows: • (1) Control group/Sham (n=5) • (2) PAB+PBS vehicle orally twice a day (BID) (n=10) • (3) PAB+SMi at 100 mpk orally BID (n=10)
Pulmonary arterial constriction was surgically performed in rats at day 0. Beginning in week 4 following surgery, animals were exposed to vehicle or SMi treatment. Weekly echocardiography was performed from surgery to week 10. After a total of 10 weeks, animals were subjected to RV catheterization.
PAB rats were subjected to right heart catheterization (RHC) (using standard techniques and while the subject is in steady state). Treatment with integrin α5β1 inhibitor, SMi improved cardiac output, stroke volume, RVSP and RVEPD.

[3] = tested on: Primary rat cardiomyocytes; assay: PE-induced cardiomyocyte hypertrophy; format: cell-based; conditions: 100 μM PE; 0.25 μM, 1 μM, and 4 μM
Method: Primary rat cardiomyocytes were treated with 50 μM, 100 μM, or 200 μM, phenylephrine (PE). Expression of ITGα5, ITGαV, ITGβ1, ITGβ3, ITGβ5 were determined by western blot (FIG. 21A). Cells treated with 100 μM PE were simultaneously exposed to integrin α5β1 inhibitor SMi at 0.25 μM, 1 μM, and 4 μM.

MCT animals = MCT animals with a cardiac defect, echocardiography; format: in vivo; conditions: 100 mg/Kg PO BID, Day 14 to Day 27, PH phenotype not induced
Method: To test the impact of SMi on cardiac function, MCT animals with a cardiac defect were treated with SMi or sildenafil as follows (1) Non-MCT vehicle PO BID; (2) MCT+vehicle PO BID (3) MCT+SMi 100 mg/Kg PO BID (4) MCT+sildenafil 10 mg/Kg PO BID (5) MCT+sildenafil 30 mg/Kg PO BID (6) MCT+sildenafil 100 mg/Kg PO BID. Pulmonary hypertension phenotype was not induced in this study (MCT causes both vascular and cardiac injury). Treatment with SMi, vehicle or sildenafil was administered, twice a day, from Day 14 to Day 27. Echocardiogram monitoring of the progression of the disease was carried out on Day 0, Day 14 and on surgery day (Day 28) for all the animals. Blood samples were taken on Day 0, Day 14 and Day 28. Pulmonary artery maximum velocity, cardiac output, stroke volume, right ventricle anterior wall thickness and pulmonary artery acceleration time were determined. […] The data were used to calculate the cardiac output and the stroke volume as follows: The cardiac output was calculated using the following formula (JF Lewis et al. 1984): Cardiac output=heart rate×VTI((pulmonary artery diameter^2×3.1416)/4) The stroke volume was calculated using the following formula: Stroke volume=cardiac output/heart rate

SuHx mice = assay: Sugen/hypoxia (SuHx) mice model of PAH; format: in vivo, mouse; conditions: SMi 100 mpk PO BID, 339.1 10 mpk IP 3x week
Method: SuHx treated mice were prepared as described above and treated with integrin α5β1 antibody inhibitors (e.g., anti-mouse integrin α5β1 clone 339.1) or SMi. anti-mouse integrin α5β1 clone 339.1 is described in Bhaskar, V., Zhang, D., Fox, M. et al. A function blocking anti-mouse integrin α5β1 antibody inhibits angiogenesis and impedes tumor growth in vivo. J Transl Med 5, 61 (2007). doi.org/10.1186/1479-5876-5-61), which is hereby incorporated by reference in its entirety.
Mice were injected with 20 mg/kg Sugen 5416 (vascular endothelial growth factor receptor inhibitor) at day 0, day 7 and day 14 and subjected to hypoxia conditions (10% oxygen) for 3 weeks. Echocardiography was performed at the start of treatment with integrin α5β1 inhibitors at week 3 (e.g., day 21) and at the end of week 5. Right heart catheterization was performed at the end of week 5.
Cardiac function was measured including improved cardiac output, and stroke volume. Other features including media cell wall thickness, vascular remodeling, proliferation, and apoptosis were measured.
Mice were divided into the following treatment and control groups: • Control group (n=5) • Vehicle PO BID (n=10) • SMi 100 mpk PO BID (n=10) • Macitentan 15 mpk PO BID (n=15) • IgG isotype control10 mpk IP (3× week) (n=15) • 339.1 10 mpk IP (3× week) (n=15) • 339.1 10 mpk IP+Macitentan 15 mpk PO BID (n=15)

PAH-PASMCs = assay: Proliferation (Ki67) and apoptosis (annexin V) of PAH-PASMCs on Fb-coated plates; format: cell-based, human; conditions: 0.25 μM, 1 μM, and 4 μM on Fb-coated plates
Method: Integrin α5β1 inhibitors (MRT, SMi, P1D6, or M200) were assessed for proliferation and apoptosis on Fb-coated plates. FIG. 5A-5C show exemplary proliferation (Ki67) and apoptosis (annexin V) of PAH-PASMCs treated with integrin α5β1 inhibitors (MRT, SMi, P1D6, or M200).
PAH-PASMCs were treated with integrin α5β1 inhibitor SMi at 0.25 μM, 1 μM, and 4 μM on Fb-coated plates. Cells were evaluated by Western blot analysis to determine expression levels of ITGα5, ITGαV, ITGβ1, p-FAK, MCM2, PLK1, p-ERK, ERK, PCNA and Survivin in hPASMCs (FIG. 6A-6B).

MCT rats = assay: Monocrotaline (MCT) rat pulmonary hypertension model; format: in vivo
Method: MCT Animals were divided into study groups as follows: • (1) Non-MCT vehicle orally twice a day (BID) (n=6) • (2) MCT+PBS vehicle orally twice a day (BID) (n=8) • (3) MCT+SMi at 100 mpk orally BID (n=8)
MCT (60 mg/kg) was administered by subcutaneous injection. Animals were exposed to vehicle or SMi treatment for 2 weeks. Blood, RV and lung analysis was performed. Cells were assessed for expression of EVG, αSMA, PCNA, and C3C. […] FIG. 12A-12D show exemplary results of treatment with SMi in MCT rats. Occlusion score (FIG. 12A), vascular remodeling (FIG. 12B), apoptosis (FIG. 12C) and proliferation (FIG. 12D) were measured.
MCT animals were treated with SMi alone or in combination with SoC therapy (Macitentan (1 mg/kg)+Tadalafil (10 mg/kg) daily). MCT Animals were divided into study groups as follows: • (1) Non-MCT vehicle orally twice a day (BID) (n=6) • (2) MCT+PBS vehicle orally twice a day (BID) (n=8) • (3) MCT+SMi at 100 mpk orally BID (n=8) • (4) MCT+SMi at 100 mpk orally BID+SoC (Macitentan (1 mg/kg)+Tadalafil (10 mg/kg) daily (n=8).
MCT (60 mg/kg) was administered by subcutaneous injection at day 0. Beginning in week 3, animals were exposed to vehicle or SMi treatment for 2 weeks. (FIG. 23A) Blood, RV and lung analysis was performed.
To determine the selectivity of SMi for α5β1, MCT animals were prepared as described above and treated with SMi or a dual inhibitor of α5β1/αvβ1 (MRT).

SuHx rats = assay: Sugen/Hypoxia (SuHx) induced PAH rat model; format: in vivo
Method: Broad-spectrum pharmacological inhibition of α5β1 improves hemodynamics and vascular remodeling in Su/Hx rats with established PAH alone or in combination with standard of care.
Animals were injected with 20 mg/kg Sugen 5416 at day 0 and subjected to hypoxia conditions (10% oxygen) for 3 weeks. Echocardiography was performed at the start of treatment with integrin α5β1 inhibitors at week 3 and at week 5. Right heart catheterization was performed at the end of week 5. Tissues were harvested for analysis.

hPASMCs = assay: hPASMC proliferation on fibronectin-coated plates; format: cell-based, human; conditions: fibronectin-coated 96 well plate, up to 5 days
Method: Antibody integrin α5β1 inhibitors were evaluated to determine whether integrin α5β1 inhibitors (e.g., P1D6 antibody or M200 antibody) could impair proliferation. Cells were seeded at 3000 cells/well in a 96 well plate coated with fibronectin. The next day integrin α5β1 inhibitor treatments were added and proliferation was monitored for up to 5 days.

[4] = target: integrin α5β1 on hPASMCs (human) (UniProt P08648); assay: cell-based or functional assay
[5] = target: rat α5β1 (cells expressing rat α5β1) (rat); assay: cell-based or functional assay
[6] = target: rat α5β1 (cells expressing rat α5β1) (rat, UniProt A0A0G2K1E2 94-1099; P49134 21-798); assay: cell-based or functional assay

Sequence of integrin α5β1 on hPASMCs (human) (P08648 42-1049, chain 1 of 2): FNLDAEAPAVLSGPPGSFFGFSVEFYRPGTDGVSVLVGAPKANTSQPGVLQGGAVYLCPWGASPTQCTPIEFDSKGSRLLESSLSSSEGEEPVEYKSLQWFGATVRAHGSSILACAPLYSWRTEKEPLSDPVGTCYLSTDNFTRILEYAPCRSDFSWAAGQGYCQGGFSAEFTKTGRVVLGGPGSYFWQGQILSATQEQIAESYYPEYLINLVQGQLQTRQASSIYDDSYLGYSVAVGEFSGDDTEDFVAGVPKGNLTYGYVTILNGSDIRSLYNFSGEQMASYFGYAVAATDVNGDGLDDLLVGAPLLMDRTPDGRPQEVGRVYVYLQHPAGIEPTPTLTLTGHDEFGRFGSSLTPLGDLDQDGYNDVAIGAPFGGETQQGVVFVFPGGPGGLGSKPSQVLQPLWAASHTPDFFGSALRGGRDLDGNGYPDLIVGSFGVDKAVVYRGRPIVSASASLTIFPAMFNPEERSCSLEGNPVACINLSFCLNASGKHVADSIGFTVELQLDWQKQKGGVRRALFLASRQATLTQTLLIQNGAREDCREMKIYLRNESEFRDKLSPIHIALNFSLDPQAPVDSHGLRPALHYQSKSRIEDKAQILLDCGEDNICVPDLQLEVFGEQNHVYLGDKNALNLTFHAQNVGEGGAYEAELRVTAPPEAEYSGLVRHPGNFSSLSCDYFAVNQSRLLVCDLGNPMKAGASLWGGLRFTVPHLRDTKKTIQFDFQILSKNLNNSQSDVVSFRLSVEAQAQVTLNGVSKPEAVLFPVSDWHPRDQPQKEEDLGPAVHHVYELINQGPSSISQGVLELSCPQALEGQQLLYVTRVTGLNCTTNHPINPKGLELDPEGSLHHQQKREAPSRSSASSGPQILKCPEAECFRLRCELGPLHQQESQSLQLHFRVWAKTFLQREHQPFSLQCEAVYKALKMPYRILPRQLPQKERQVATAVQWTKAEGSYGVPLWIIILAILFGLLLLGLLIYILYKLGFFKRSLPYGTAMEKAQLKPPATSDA
Sequence of integrin α5β1 on hPASMCs (human) (P05556 21-798, chain 2 of 2, further chain): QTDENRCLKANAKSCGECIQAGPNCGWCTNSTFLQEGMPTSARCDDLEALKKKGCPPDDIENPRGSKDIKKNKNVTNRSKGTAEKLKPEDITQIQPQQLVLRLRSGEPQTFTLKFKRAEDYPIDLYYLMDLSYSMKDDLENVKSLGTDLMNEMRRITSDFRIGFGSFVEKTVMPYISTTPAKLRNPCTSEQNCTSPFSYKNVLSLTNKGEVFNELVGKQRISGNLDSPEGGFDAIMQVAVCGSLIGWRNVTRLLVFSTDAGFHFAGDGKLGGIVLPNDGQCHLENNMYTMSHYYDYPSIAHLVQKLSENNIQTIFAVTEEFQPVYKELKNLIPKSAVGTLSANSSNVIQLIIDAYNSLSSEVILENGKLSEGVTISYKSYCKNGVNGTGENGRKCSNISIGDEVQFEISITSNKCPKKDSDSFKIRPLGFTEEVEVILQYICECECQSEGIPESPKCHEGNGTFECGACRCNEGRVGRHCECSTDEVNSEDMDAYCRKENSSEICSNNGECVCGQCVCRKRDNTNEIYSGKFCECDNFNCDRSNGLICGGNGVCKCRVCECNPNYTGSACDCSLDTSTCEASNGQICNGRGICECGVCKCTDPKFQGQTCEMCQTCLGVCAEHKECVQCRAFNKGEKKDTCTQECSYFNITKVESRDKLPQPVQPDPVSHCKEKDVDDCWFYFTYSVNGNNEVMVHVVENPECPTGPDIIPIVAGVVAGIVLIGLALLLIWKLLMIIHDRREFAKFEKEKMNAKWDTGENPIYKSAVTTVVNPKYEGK

## CCCCC[C@H](O)/C=C/[C@@H]1[C@H]2C/C(=C/CCCC(=O)O)O[C@H]2C[C@H]1O [Flolan, epoprostenol]
[1]
  stability: 8 h
[2]; in vivo
  half-life: 0.05 to 0.083 h

## Cc1nn(C)c2c(C(C(=O)O)N3CC(OCCCCc4ccc5c(n4)NCCC5)C3)cccc12 (stereo not drawn) [SMi]
Human PAH-RVFbs
  PAH-RVFbs proliferation and activation: decreases PAH-RVFbs proliferation and activation in a dose dependent manner
PAB rats; 100 mpk orally BID
  hypertrophy and right ventricle (RV) fibrosis: improved
PAB rats; echocardiography
  cardiac function over time compared to vehicle control: directly improved cardiac function
PAB rats; right heart catheterization
  RVEPD: improved
  RVSP: improved
  cardiac output: improved
  stroke volume: improved
[3]
  PE-induced adult rat cardiomyocytes hypertrophy: prevents PE-induced adult rat cardiomyocytes hypertrophy
MCT animals
  cardiac output: considerable increase
SuHx mice
  cardiac and vascular improvement: cardiac and vascular improvement
PAH-PASMCs
  apoptosis (annexin V): increased apoptosis
  proliferation (Ki67): impaired proliferation
MCT rats
  cardiac function vascular remodeling (EVG, media wall thickness, mPAP, cardiac output, RVFAC): improved cardiac function vascular remodeling
MCT rats; 100 mpk orally BID, 2 weeks
  vascular remodeling: improved vascular remodeling
MCT rats; SMi alone or in combination with SoCs
  hypertrophy and right ventricle (RV) fibrosis: improved
MCT rats; SMi alone or with Maci (1 mg/kg) + Tada (10 mg/kg)
  vascular remodeling: improved vascular remodeling
SuHx rats; SMi and/or SoCs
  apoptosis: improved
  fibrosis: reduced
  hypertrophy: reduced
  media cell wall thickness: improved
  proliferation: improved
  stroke volume: improved
  vascular remodeling: improved
SuHx rats; SMi and/or SoCs (Macitentan, Tadalafil)
  cardiac output: improved

## CN1CC(=O)N2[C@H](c3ccc4c(c3)OCO4)c3[nH]c4ccccc4c3C[C@@H]2C1=O [Tadalafil, tadalafil]
[2]; in patients with PAH
  half-life: 35 h

## M200: integrin α5β1 antibody, heavy chain SEQ ID NO: 1, light chain SEQ ID NO: 2
hPASMCs
  proliferation of hPASMCs: reduced proliferation

## P1D6 (antibody)
[4]
  reduction of hPASMCs proliferation: 70%
[5]
  IC50 (nM), cell adhesion assay: 5.6 nM
  IC50 (ug/ml), cell adhesion assay: 0.84 µg/mL

B1: volociximab (M200) (antibody, human IgG4, kappa, V domains shown)
VH: QVQLKESGPGLVAPSQSLSITCTISGFSLTDYGVHWVRQPPGKGLEWLVVIWSDGSSTYNSALKSRMTIRKDNSKSQVFLIMNSLQTDDSAMYYCARHGTYYGMTTTGDALDYWGQGTSVTVSS
VL: QIVLTQSPAIMSASLGERVTMTCTASSSVSSNYLHWYQQKPGSAPNLWIYSTSNLASGVPARFSGSGSGTSYSLTISSMEAEDAATYYCHQYLRSPPTFGGGTKLEIKR
[6]
  IC50 (nM), cell adhesion assay: 6.8 nM
  IC50 (ug/ml), cell adhesion assay: 1 µg/mL
